The assay is described as follows: Inhibition of yeast alpha-glucosidase. Also noted: species or system Saccharomyces cerevisiae.

This is an account of results in ChEMBL document CHEMBL1144470, “Occurrence of the alpha-glucosidase inhibitor 1,4-Dideoxy-1,4-imino-D-arabinitol and related iminopentitols in marine sponges” (J Nat Prod, 2007).

Values after ≈ are worked out from the molar mass of the structure shown.

A word on the IC50: it is the concentration that inhibits the measured activity by half. A high value points to a need for much substance. On to `OC[C@H]1NC[C@@H](O)[C@@H]1O`, for which the concentration for half-maximal inhibition (IC50) was 0.16 µg/mL (≈ 1.2 µM).
